Data reported in patent US8709511B2, “External preparation composition for skin comprising ginseng flower or ginseng seed extracts” (Amorepacific Corporation, priority 2008, dated 2014).

How the values were obtained:
[1] = test system: C57BL/6 mouse melanocytes (Mel-Ab cells); experiment: Melanin synthesis inhibition using mouse melanocytes (Dooley's method); type: cell-based; conditions: 72 h, 3 days
Procedure: Mouse melanocytes were used to examine the melanin synthesis inhibitory effect of the ginseng flower extract prepared in Example 1, the ginseng seed oil prepared in Example 2 and the ginseng seed residue extract prepared in Example 3.
First, C57BL/6 mouse melanocytes (Mel-Ab cells; Dooley, T. P. et al., Skin Pharmacol., 7, pp. 188-200) were cultured in Dulbecco's modified Eagle's medium (DMEM) containing 10% fetal bovine serum, 100 nM 2-O-tetradecanoylphorbol-13-acetate and 1 nM cholera toxin under the condition of 37° C. and 5% CO2 . The cultured Mel-Ab cells were detached with 0.25% trypsin-EDTA and cultured in a 24-well culture plate at a concentration of 10^5 cells/well. Then, from day 2 of culture, each of 10 ppm, 50 ppm and 100 ppm of the ginseng flower extract (Example 1), the ginseng seed oil (Example 2) and the ginseng seed residue extract (Example 3) was continuously added thereto and cultured for 3 days. The positive control group was treated with arbutin (Sigma Co.). Then, the culture media were removed, and the cells were washed with PBS and lysed with 1 N sodium hydroxide. The lysed cells were measured for absorbance at 400 nm, and then the inhibition of melanin production was calculated according to Equation 2. […] Melanin synthesis inhibition (%)=100−[(Absorbance of each test material/Absorbance of control)×100] […]

[2] = test system: UVB-darkened human skin (upper arm); experiment: Whitening on human skin after UVB-induced darkening (colorimeter); type: in vivo; conditions: applied on UVB-irradiated upper arm for 10 weeks; vehicle 0.51 ± 0.13
Procedure: In order to examine the whitening effect of the ginseng flower extract prepared in Example 1, the ginseng seed oil prepared in Example 2 and the ginseng seed residue extract prepared in Example 3 on human skin, the following test was carried out.
First, for 12 healthy men, a 1.5-cm perforated opaque tape was attached to the upper arm portion of the subjects, and then the attached portion was irradiated with UVB at a dose of about 1.5-2 times the minimal erythemal dose of each subject to induce skin darkening.
The color of the skin was measured with the colorimeter CR2002 (Minolta, Japan) at 1-week intervals.
Then, the difference in skin color (ΔL*) between the time point of initiation of application and the time point of completion of application of each test material was calculated according to Equation 3, and the calculation results are shown in Table 8. The whitening effect is evaluated by measuring the ΔL* value between the sample-applied portion and the control portion. […] L*=L* value at the time of completion of application−L* value at the time of initiation of application [Equation 3]

[3] = test system: matrix metalloproteinase 1 (MMP-1) in human fibroblasts; experiment: Inhibition of UVB-induced MMP-1 expression (ELISA); type: cell-based; conditions: UVB 40 mJ/cm^2, 10 μM, 2 days; non-UV = 100, UV alone 152
Procedure: Human fibroblasts were cultured in a 12-well culture plate at a concentration of 10^5 cells/well, and then irradiated with 40 mJ/cm ^2 of UVB. Then, the culture medium was replaced with media containing 1 ppm, 10 ppm and 50 ppm of the ginseng flower extract prepared in Example 1. At 2 days of culture, the cells were harvested, and the amount of produced matrix metalloproteinase 1 (MMP-1) was quantified using an ELISA method. The measurement results were calculated relative to 100 for the non-UV-irradiated control group not treated with the test material. The positive control group was treated with retinoic acid (RA, Sigma Co.).

[4] = test system: human HaCaT keratinocyte monolayer culture system; experiment: Inhibition of reactive oxygen species production after UVB (DCFH-DA fluorescence); type: cell-based
Procedure: Antioxidative effect of the ginseng flower extract and the ginseng seed extract was investigated by comparing the capacity of removing reactive oxygen species (ROS) produced in cells in response to UV radiation. The positive control group for the ginseng flower extract was treated with vitamin C (Sigma Co.), which is commonly used to compare antioxidative effect. And, the control group was left untreated. A human HaCaT keratinocyte monolayer culture system (P. Boukamp, German Cancer Research Center, Heidelberg, Germany) was treated with UV (UVB 30 mJ/cm^2) and then with the extract prepared in Example 1 at 10 ppm, 50 ppm and 100 ppm. Then, 2′,7′-dichlorodihydrofluorescein diacetate (DCFH-DA; Molecular Probes, Inc.) was measured with a fluorescence plate reader. Production of ROS was calculated relative to the UV-untreated control group. The positive control group for the ginseng seed extract was treated with Trolox (Aldrich Co.), which is commonly used to compare antioxidative effect. And, the control group was left untreated. […] Then, DCFH-DA (Molecular Probes, Inc.) was measured with a fluorescence plate reader. Inhibition of ROS production was calculated relative to the UV-treated control group.

[5] = test system: type I procollagen in human fibroblasts; experiment: Type I procollagen assay (ELISA); type: cell-based; conditions: 10 ng/mL, 3 days; positive control set to 100
Procedure: Human fibroblasts were cultured in a 12-well culture plate at a concentration of 10 ^5 cells/well, and then the medium was replaced with media containing 1 ppm, 10 ppm and 50 ppm of the ginseng flower extract prepared in Example 1 or with media containing 1 ppm and 10 ppm of the ginseng seed oil prepared in Example 2 or the ginseng seed residue extract prepared in Example 3, as shown in Table 4. At 3 days of culture, the cells were harvested, and the amount of the produced type I procollagen was quantified using an ELISA method. The measurement results were calculated relative to 0 for the control group containing neither the ginseng flower extract nor the ginseng seed extract and 100 for the positive control group (human transforming growth factor-β1 (TGF-β1, Roche Co.)).

Human normal fibroblasts = experiment: Inhibition of oxidative damage of DNA by single cell gel electrophoresis (comet assay), H2O2 challenge; type: cell-based; conditions: 10 ppm
Procedure: Human normal fibroblasts were cultured for 24 hours and treated with varying concentrations of the ginseng flower extract prepared in Example 1, the ginseng seed oil prepared in Example 2, the ginseng seed residue extract prepared in Example 3 and vitamin E. After 12 hours, the cells were treated with the positive control H2O2 (final concentration: 10^−3 M), stained by electrophoresis, and then observed with a fluorescence microscope. The image analyzer Komet 3.1 (Kinetic Imaging, England) was used to analyze the tail length (μm) resulting from the digestion of DNA in each of 25 cells.

OC[C@H]1O[C@@H](Oc2ccc(O)cc2)[C@H](O)[C@@H](O)[C@@H]1O [Arbutin, arbutin]
inhibition at 100 ppm [1]: 51%

Oc1ccc(O)cc1 [Hydroquinone, hydroquinone]
Skin color brightness (ΔL*) [2]: 1.89 ± 0.15

CC1=C(/C=C/C(C)=C/C=C/C(C)=C/C(=O)O)C(C)(C)CCC1 [RA, retinoic acid]
MMP-1 biosynthesis (%) [3]: 45%

Cc1c(C)c2c(c(C)c1O)CCC(C)(C(=O)O)O2 (centres unmarked) [Trolox]
Inhibition of ROS production (%) ([4]; UVB 30 mJ/cm^2, 0.1 mM, relative to UV-treated control): 42.7%

O=C1O[C@H]([C@@H](O)CO)C(O)=C1O [vitamin C]
ROS production (%) ([4]; UVB 30 mJ/cm^2, 100 μM, relative to UV-untreated control = 100 (UVB alone 161)): 72%

TGF-β1: human transforming growth factor-β1 (Roche Co.), positive control
Type I procollagen biosynthesis (%) [5]: 100%

vitamin E
Tail length (μm) (Human normal fibroblasts; 12 h before H2O2 10^-3 M, control 112.4): 68.9 μm | Inhibition (%) (Human normal fibroblasts; inhibition of oxidative DNA damage (tail length) vs control): 38.7%
